Reference: patent US8604016B2, “Heterocyclic inhibitors of glutaminase” (Calithera Biosciences Inc., priority 2011, dated 2013)
Values after ≈ are worked out from the molar mass of the structure shown. Read-outs that look alike come from different tables or passages of the source.

Legend:
[1] = Caco-2 Permeability Assay (bidirectional); format: in vitro ADME; conditions: human; for recovery at 120 min, 1 μM / Papp A→B at 120 min, 1 μM / Papp B→A at 120 min, 1 μM: pH 7.4; for efflux ratio at 120 min, 1 µM / Papp A→B at 120 min, 1 μM / Papp B→A at 120 min, 1 μM / permeability class (Low/High absorption potential) at 120 min, 1 µM: Caco-2; for efflux ratio at 120 min, 1 µM: (Papp B→A)/(Papp A→B); for Papp A→B at 120 min, 1 μM: Direction A→B; for Papp A→B at 120 min, 1 μM / Papp B→A at 120 min, 1 μM: unit not given (thresholds in 10^−6 cm/s); for Papp B→A at 120 min, 1 μM: Direction B→A; for permeability class (Low/High absorption potential) at 120 min, 1 µM: read-out: Permeability Classification
Excerpt: (§1) Caco-2 cells are commonly used in a confluent monolayer on a cell culture insert filter. When cultured in this format and under specific conditions, the cells become differentiated and polarized such that their phenotype, morphologically and functionally resembles the enterocytes lining the small intestine. The cell monolayer provides a physical and biochemical barrier to the passage of small molecules, and is widely used across the pharmaceutical industry as an in vitro model of the human small intestinal mucosa to predict the absorption of orally administered drugs (Hidalgo et al., Gastroenterology, 1989; Artursson, J. Pharm. Sci., 1990). The correlation between the in vitro apparent permeability (P ? app) across Caco-2 monolayers and the in vivo absorption is well established (Artursson et al., Biochem. Biophys. Res. Comm., 1991).
(§2) The present assay was used to determine the bidirectional permeability of the compounds of the invention through Caco-2 cell monolayers. Caco-2 cells were grown in confluent monolayers where the media of both the apical (A) and basolateral (B) sides were at pH 7.4. Compounds were dosed at 1 μM in the presence of 200 μM Lucifer Yellow, on the apical side (A→B) or the basolateral side (B→A) for assessment, in duplicate.
(§3) The absorption potential of compounds were classified as either Low (P-app <1×10^−6 cm/s) or High (P-app >1×10^−6 cm/s).

Caco-2 cell monolayers = test: Caco-2 Permeability Assay (bidirectional); format: in vitro ADME
Excerpt: as §1, §2, §3

[2] = Solubility (18 hr vortex mixing at room temperature, filtration, HPLC); format: physicochemical; conditions: thermodynamic from solid
Experimental: Ca. 1 mg portions of test article were combined with 120 μL solvent in wells of a 96×2 mL polypropylene plate. […] The contents of all wells were then filtered through a 0.45 μm GHP filter plate to yield clear filtrates. 5 μL of each filtrate was diluted into 100 μL DMF and vortex mixed to yield HPLC samples. Duplicate quantitation standards for each test article were prepared by diluting weighed portions of solid test article in measured volumes of DMF. 2 μL of each HPLC sample and quantitation standard were analyzed by HPLC using the method outlined in Table 5. Dissolved test article concentrations were calculated by peak area ratio against the appropriate quantitation standards.

P493-6 (myc "on") cells = test: Cell Proliferation Assay (72 hrs, Cell Titer Glo or Viacount FACS); format: cell-based; conditions: P493-6 cells, 72 h
Experimental: P493-6 (myc “on”) cells were maintained in growth media (RPMI-1640, 10% FBS, 2 mM glutamine, 100 units/ml Penicillin and 100 μg/ml streptomycin) at 37° C. with 5% CO2. For compound assay, P493-6 cells were plated in 96-well V-bottom plates on the day of compound addition in 50 μl of growth media at a cell density of 200,000 cells/ml (10,000 cells/well). Compounds were serially diluted in 100% DMSO at 200-times the final concentration. Compounds were diluted 100-fold into growth media and then 50 μl of this mixture was added to cell plates making the final concentration of DMSO 0.5%. Cells were incubated with compound for 72 hrs at 37° C. with 5% CO2 and analyzed for antiproliferative effects either by Cell Titer Glo (Promega) or FACS analysis using the Viacount (Millipore) kit on the Guava instrument.

[3] = 50 mM citrate buffer pH 2.3, 20 °C, aqueous buffer, 50 mM Cit pH 2.3, room temperature
[4] = 50 mM citrate buffer pH 3.3, 20 °C, aqueous buffer, 50 mM Cit pH 3.3, room temperature
[5] = 50 mM citrate buffer pH 4.4, 20 °C, aqueous buffer, 50 mM Cit pH 4.4, room temperature
[6] = 50 mM citrate buffer pH 5.4, 20 °C, aqueous buffer, 50 mM Cit pH 5.4, room temperature
[7] = 20 °C, aqueous buffer, PBS, room temperature
[8] = 20 °C, aqueous with cosolvent or surfactant or cyclodextrin, 10% CrEL/50 mM cit, room temperature
[9] = 20 °C, aqueous with cosolvent or surfactant or cyclodextrin, 10% PS80/50 mM cit, room temperature
[10] = 20 °C, aqueous with cosolvent or surfactant or cyclodextrin, 20% HPBCD/50 mM cit, room temperature
[11] = 20 °C, aqueous with cosolvent or surfactant or cyclodextrin, 20% SBECD/50 mM cit, room temperature
[12] = 20 °C, oil or lipid, Capryol 90, room temperature
[13] = 20 °C, oil or lipid, Capryol PGMC, room temperature
[14] = 20 °C, oil or lipid, Labrasol, room temperature
[15] = 20 °C, oil or lipid, canola oil, room temperature
[16] = 20 °C, organic solvent or mixture, EtOH, room temperature
[17] = 20 °C, organic solvent or mixture, PEG400, room temperature
[18] = 20 °C, organic solvent or mixture, PG, room temperature
[19] = 20 °C, pH 1, simulated gastric fluid, 0.1M HCl, room temperature
[20] = 20 °C, pH 13, aqueous buffer, 0.1M NaOH, room temperature
[21] = 20 °C, saline or isotonic, 0.9% NaCl, room temperature
[22] = water, room temperature (ca. 20 C)

| recovery at 120 min, 1 μM ([1]; Caco-2, pH 7.4, Direction A→B) [%] | recovery at 120 min, 1 μM ([1]; Caco-2, pH 7.4, Direction B→A) [%] | efflux ratio at 120 min, 1 µM [1] | Papp A→B at 120 min, 1 μM [1] [×10⁻⁶ cm/s] | Papp B→A at 120 min, 1 μM [1] [×10⁻⁶ cm/s] | permeability class (Low/High absorption potential) at 120 min, 1 µM [1] [×10⁻⁶ cm/s] | solubility at 18 h [2, 3] [µg/mL] | solubility at 18 h [2, 4] [µg/mL] | solubility at 18 h [2, 5] [µg/mL] | solubility at 18 h [2, 6] [µg/mL] | solubility at 18 h [2, 7] [µg/mL] | solubility at 18 h [2, 8] [µg/mL] | solubility at 18 h [2, 9] [µg/mL] | solubility at 18 h [2, 10] [µg/mL] | solubility at 18 h [2, 11] [µg/mL] | solubility at 18 h [2, 12] [µg/mL] | solubility at 18 h [2, 13] [µg/mL] | solubility at 18 h [2, 14] [µg/mL] | solubility at 18 h [2, 15] [µg/mL] | SMILES | Significant Efflux (Caco-2 cell monolayers) | also measured |
| --- | --- | --- | --- | --- | --- | --- | --- | --- | --- | --- | --- | --- | --- | --- | --- | --- | --- | --- | --- | --- | --- |
| 71 | 56 | 3.5 | 7.76 | 27.2 | > 1 | < 4 | < 4 | < 4 | < 4 | < 4 | 732 (≈ 1180 µM) | 851 (≈ 1370 µM) | 2180 (≈ 3510 µM) | 2720 (≈ 4380 µM) | 11100 (≈ 17900 µM) | 7920 (≈ 12700 µM) | 77200 (≈ 124000 µM) | 71 (≈ 114 µM) | O=C(Cc1cccc(OC(F)(F)F)c1)Nc1ccc(CCCCc2nnc(NC(=O)C(O)c3cccc(Cl)c3)s2)nn1 (centres unmarked) [Compound 447] | Yes (efflux ratios being significant when greater than or equal to 3 when the Papp (B→A) was greater than or equal to 1×10^−6 cm/s) | solubility at 18 h [2, 16]: 3920 µg/mL (≈ 6310 µM); solubility at 18 h [2, 17]: 57300 µg/mL (≈ 92300 µM); solubility at 18 h [2, 18]: 8260 µg/mL (≈ 13300 µM); solubility at 18 h [2, 19]: < 4 µg/mL; solubility at 18 h [2, 20]: 192 µg/mL (≈ 309 µM); solubility at 18 h [2, 21]: 5 µg/mL (≈ 8.05 µM); solubility at 18 h [2, 22]: < 4 µg/mL |
| – | – | – | – | – | – | – | – | – | – | – | – | – | – | – | – | – | – | – | O=C(Cc1cccc(CN2CCNCC2)c1)Nc1nnc(CCCCc2nnc(NC(=O)Cc3cccc(CN4CCNCC4)c3)s2)s1 [Compound 276] | – | IC50 (P493-6 (myc "on") cells; read-out: Cell prolif P493 72h IC50): 56 µM |
| – | – | – | – | – | – | – | – | – | – | – | – | – | – | – | – | – | – | – | Nc1nnc(CCCCc2ccc(NC(=O)Cc3cccc(OC(F)(F)F)c3)nn2)s1 [Compound 657, N-(6-(4-(5-amino-1,3,4-thiadiazol-2-yl)butyl)pyridazin-3-yl)-2-(3-(trifluoromethoxy)phenyl)acetamide] | – | IC50 (P493-6 (myc "on") cells; P493-6, 72 h, read-out: Cell prolif P493 72h): 1.5 µM |
| 51 | 66 | 6.6 | 6.26 | 41 | > 1 | < 4 | < 4 | < 4 | < 4 | < 4 | 309 (≈ 527 µM) | 378 (≈ 644 µM) | 651 (≈ 1110 µM) | 476 (≈ 811 µM) | 7410 (≈ 12600 µM) | 3680 (≈ 6280 µM) | 20700 (≈ 35300 µM) | 14 (≈ 23.9 µM) | O=C(Cc1cccc(OC(F)(F)F)c1)Nc1ccc(CCCCc2nnc(NC(=O)[C@@H](O)c3ccccc3)s2)nn1 [Compound 703] | Yes (efflux ratios being significant when greater than or equal to 3 when the Papp (B→A) was greater than or equal to 1×10^−6 cm/s) | solubility at 18 h [2, 16]: 2640 µg/mL (≈ 4510 µM); solubility at 18 h [2, 17]: 22400 µg/mL (≈ 38200 µM); solubility at 18 h [2, 18]: 4700 µg/mL (≈ 8010 µM); solubility at 18 h [2, 19]: < 4 µg/mL; solubility at 18 h [2, 20]: 656 µg/mL (≈ 1120 µM); solubility at 18 h [2, 21]: < 4 µg/mL; solubility at 18 h [2, 22]: < 4 µg/mL |
